Experiment in all cases: PI3-kinase
Common to all, as to assay type: biochemical

Assay [1] concerns the target PI3Kδ (p110δ/p85α) (Homo sapiens, UniProt O00329).
Assay [2] concerns the target PI3Kα (p110α/p85α) (Homo sapiens, UniProt P42336).
The target in assay [3] is PI3Kγ (p110γ) (Homo sapiens, UniProt P48736).

The text below walks through data of paper PMC5867518 (Cell metabolism, 2015).

Chain of PI3Kγ (p110γ) (P48736 whole entry): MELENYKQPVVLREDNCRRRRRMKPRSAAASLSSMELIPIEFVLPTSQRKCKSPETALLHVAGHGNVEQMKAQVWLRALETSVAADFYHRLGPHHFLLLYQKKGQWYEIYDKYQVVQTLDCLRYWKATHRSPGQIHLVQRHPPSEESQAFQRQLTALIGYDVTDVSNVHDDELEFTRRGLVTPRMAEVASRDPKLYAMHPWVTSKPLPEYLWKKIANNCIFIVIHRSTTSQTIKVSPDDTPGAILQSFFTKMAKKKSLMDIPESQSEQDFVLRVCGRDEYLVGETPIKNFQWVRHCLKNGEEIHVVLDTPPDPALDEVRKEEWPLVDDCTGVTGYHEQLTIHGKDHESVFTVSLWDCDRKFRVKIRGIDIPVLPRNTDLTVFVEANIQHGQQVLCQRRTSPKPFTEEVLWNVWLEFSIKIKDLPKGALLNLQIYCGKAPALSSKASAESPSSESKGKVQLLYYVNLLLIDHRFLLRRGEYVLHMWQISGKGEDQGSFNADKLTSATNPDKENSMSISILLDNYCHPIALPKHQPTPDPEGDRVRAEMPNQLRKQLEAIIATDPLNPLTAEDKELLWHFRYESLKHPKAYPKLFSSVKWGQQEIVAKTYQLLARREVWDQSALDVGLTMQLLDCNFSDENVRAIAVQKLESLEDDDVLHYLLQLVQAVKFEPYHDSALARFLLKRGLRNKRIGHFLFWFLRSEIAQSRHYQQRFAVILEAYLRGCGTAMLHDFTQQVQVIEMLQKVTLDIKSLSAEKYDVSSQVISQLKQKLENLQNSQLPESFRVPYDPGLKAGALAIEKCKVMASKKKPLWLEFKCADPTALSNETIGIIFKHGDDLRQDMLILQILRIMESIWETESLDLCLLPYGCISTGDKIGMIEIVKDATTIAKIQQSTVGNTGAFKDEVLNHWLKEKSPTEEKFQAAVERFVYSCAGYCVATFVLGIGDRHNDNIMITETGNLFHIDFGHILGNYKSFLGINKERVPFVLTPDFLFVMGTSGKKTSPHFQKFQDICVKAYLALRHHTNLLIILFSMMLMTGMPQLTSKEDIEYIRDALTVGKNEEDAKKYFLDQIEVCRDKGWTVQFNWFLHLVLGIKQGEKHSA
Chain of PI3Kδ (p110δ/p85α) (O00329 whole entry): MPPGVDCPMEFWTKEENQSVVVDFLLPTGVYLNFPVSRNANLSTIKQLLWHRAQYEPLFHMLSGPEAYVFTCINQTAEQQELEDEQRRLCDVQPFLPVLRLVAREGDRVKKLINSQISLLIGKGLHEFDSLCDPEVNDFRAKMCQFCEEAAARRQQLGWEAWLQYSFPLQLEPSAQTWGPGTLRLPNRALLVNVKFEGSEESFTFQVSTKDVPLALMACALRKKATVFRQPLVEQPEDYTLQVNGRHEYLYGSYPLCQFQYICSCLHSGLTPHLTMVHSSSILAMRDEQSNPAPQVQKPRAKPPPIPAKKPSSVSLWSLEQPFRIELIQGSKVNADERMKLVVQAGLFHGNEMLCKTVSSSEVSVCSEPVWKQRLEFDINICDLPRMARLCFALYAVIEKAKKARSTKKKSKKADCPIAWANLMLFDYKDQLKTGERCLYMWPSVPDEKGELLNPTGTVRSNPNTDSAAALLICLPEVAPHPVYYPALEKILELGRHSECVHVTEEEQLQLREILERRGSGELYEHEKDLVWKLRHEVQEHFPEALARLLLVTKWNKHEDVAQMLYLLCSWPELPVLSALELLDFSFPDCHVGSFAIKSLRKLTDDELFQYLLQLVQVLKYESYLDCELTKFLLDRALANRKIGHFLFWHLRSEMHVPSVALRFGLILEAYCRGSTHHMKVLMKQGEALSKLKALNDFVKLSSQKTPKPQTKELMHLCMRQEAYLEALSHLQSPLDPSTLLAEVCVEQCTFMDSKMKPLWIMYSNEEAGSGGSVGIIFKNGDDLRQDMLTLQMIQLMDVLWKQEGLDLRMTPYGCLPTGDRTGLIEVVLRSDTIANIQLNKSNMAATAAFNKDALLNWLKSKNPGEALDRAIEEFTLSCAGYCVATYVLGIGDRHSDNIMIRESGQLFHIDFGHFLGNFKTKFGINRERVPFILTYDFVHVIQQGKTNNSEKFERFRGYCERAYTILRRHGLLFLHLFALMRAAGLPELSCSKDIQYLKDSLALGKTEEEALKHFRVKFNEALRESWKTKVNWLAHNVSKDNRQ
Chain of PI3Kδ (p110δ/p85α) (P27986 2-724 partner): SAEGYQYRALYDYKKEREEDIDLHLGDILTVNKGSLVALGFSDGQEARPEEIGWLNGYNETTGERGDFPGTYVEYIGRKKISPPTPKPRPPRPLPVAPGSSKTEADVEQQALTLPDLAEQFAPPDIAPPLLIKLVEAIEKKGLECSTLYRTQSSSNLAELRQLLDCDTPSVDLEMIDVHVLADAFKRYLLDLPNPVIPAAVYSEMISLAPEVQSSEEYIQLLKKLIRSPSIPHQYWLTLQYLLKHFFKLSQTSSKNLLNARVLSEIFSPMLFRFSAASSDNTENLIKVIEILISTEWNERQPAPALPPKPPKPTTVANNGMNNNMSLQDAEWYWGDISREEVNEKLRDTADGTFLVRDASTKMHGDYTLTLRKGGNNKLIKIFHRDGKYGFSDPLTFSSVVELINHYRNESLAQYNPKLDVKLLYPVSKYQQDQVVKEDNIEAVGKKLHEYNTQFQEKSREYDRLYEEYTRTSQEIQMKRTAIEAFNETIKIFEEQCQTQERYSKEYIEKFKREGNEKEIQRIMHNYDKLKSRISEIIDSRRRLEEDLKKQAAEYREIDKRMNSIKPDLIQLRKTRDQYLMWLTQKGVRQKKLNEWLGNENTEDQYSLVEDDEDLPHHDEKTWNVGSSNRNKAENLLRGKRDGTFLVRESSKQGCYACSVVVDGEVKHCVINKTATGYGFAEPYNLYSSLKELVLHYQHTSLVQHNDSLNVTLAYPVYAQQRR
Chain of PI3Kα (p110α/p85α) (P42336 whole entry): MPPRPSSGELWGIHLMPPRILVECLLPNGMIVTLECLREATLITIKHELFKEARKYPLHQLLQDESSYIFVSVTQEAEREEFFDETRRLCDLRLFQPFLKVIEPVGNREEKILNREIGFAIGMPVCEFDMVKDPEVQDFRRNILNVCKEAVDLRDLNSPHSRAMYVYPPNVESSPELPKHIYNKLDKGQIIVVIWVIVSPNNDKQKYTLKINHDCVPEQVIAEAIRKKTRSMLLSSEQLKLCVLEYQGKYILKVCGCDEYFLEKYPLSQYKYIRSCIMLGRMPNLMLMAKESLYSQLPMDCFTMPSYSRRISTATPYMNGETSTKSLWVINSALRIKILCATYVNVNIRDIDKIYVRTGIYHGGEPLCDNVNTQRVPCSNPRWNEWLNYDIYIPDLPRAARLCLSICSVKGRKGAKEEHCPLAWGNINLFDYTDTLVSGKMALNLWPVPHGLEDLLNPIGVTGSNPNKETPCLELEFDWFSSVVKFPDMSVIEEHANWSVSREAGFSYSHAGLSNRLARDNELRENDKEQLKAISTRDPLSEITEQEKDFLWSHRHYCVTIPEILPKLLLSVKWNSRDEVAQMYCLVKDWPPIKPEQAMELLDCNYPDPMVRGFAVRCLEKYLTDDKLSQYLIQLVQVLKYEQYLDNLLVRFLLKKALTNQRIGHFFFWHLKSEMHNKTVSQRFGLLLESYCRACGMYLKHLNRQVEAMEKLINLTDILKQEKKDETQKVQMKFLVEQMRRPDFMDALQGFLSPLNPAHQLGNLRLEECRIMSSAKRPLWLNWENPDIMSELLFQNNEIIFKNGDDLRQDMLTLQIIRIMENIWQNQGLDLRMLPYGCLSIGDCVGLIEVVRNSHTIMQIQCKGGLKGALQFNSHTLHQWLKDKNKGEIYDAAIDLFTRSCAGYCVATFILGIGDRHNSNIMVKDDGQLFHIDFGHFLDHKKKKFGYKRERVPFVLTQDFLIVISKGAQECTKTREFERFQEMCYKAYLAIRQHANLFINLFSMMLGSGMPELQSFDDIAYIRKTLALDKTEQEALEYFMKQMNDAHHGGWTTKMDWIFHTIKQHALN
Chain of PI3Kα (p110α/p85α) (P27986 2-724 partner): as the sequence (P27986 2-724 partner) above

On to CNIO-PI3Ki, for which the IC50 – broadly, the concentration at which inhibition is half-maximal – in assay [1] stood at 2.5 nM; in assay [2], 2.4 nM; in assay [3], 44 nM.
